Assay results: the NIST ThermoML archive (doi:10.1016/j.jct.2014.06.001)
Numbers after ± are expanded uncertainties.

Conditions: for mass density: 293 K, 101.33 kPa, Pycnometric method; for vapor or sublimation pressure: Transpiration method

## CCN1C(=O)CC(=O)N(CC)C1=S [1,3-diethyl-2-thiobarbituric acid]
Crystal
  mass density: 1610 ± 20 kg/m3
327.3 K, Crystal
  vapor or sublimation pressure: 0.00039 ± 3e-05 kPa
333.6 K, Crystal
  vapor or sublimation pressure: 0.00074 ± 5e-05 kPa
337.7 K, Crystal
  vapor or sublimation pressure: 0.0011 ± 8e-05 kPa
340 K, Crystal
  vapor or sublimation pressure: 0.00135 ± 0.0001 kPa
343 K, Crystal
  vapor or sublimation pressure: 0.00185 ± 0.00014 kPa
348 K, Crystal
  vapor or sublimation pressure: 0.00293 ± 0.00022 kPa
349.1 K, Crystal
  vapor or sublimation pressure: 0.0034 ± 0.00024 kPa
351 K, Crystal
  vapor or sublimation pressure: 0.00384 ± 0.00028 kPa
353.3 K, Crystal
  vapor or sublimation pressure: 0.00489 ± 0.00036 kPa
354.1 K, Crystal
  vapor or sublimation pressure: 0.00551 ± 0.00041 kPa
355.3 K, Crystal
  vapor or sublimation pressure: 0.00634 ± 0.00045 kPa
358.1 K, Crystal
  vapor or sublimation pressure: 0.00756 ± 0.00055 kPa
362.4 K, Crystal
  vapor or sublimation pressure: 0.01184 ± 0.00086 kPa
367.7 K, Crystal
  vapor or sublimation pressure: 0.01865 ± 0.0014 kPa
368.6 K, Crystal
  vapor or sublimation pressure: 0.02034 ± 0.0015 kPa
370.7 K, Crystal
  vapor or sublimation pressure: 0.02408 ± 0.0017 kPa
372.2 K, Crystal
  vapor or sublimation pressure: 0.02684 ± 0.0019 kPa
375.7 K, Crystal
  vapor or sublimation pressure: 0.03524 ± 0.0025 kPa
375.9 K, Crystal
  vapor or sublimation pressure: 0.03465 ± 0.0024 kPa

## CCN1C(=O)CC(=O)N(CC)C1=O [1,3-diethylbarbituric acid]
Crystal
  mass density: 1320 ± 20 kg/m3
328.9 K, Liquid
  vapor or sublimation pressure: 0.00282 ± 0.00021 kPa
333.8 K, Liquid
  vapor or sublimation pressure: 0.00441 ± 0.00032 kPa
339.1 K, Liquid
  vapor or sublimation pressure: 0.00675 ± 0.00048 kPa
346 K, Liquid
  vapor or sublimation pressure: 0.0115 ± 0.00082 kPa
351.2 K, Liquid
  vapor or sublimation pressure: 0.01744 ± 0.0012 kPa
356.2 K, Liquid
  vapor or sublimation pressure: 0.02535 ± 0.0018 kPa
360.3 K, Liquid
  vapor or sublimation pressure: 0.03131 ± 0.0022 kPa
366 K, Liquid
  vapor or sublimation pressure: 0.04999 ± 0.0036 kPa
371.3 K, Liquid
  vapor or sublimation pressure: 0.07142 ± 0.005 kPa
376.8 K, Liquid
  vapor or sublimation pressure: 0.09721 ± 0.0069 kPa
380.7 K, Liquid
  vapor or sublimation pressure: 0.1327 ± 0.0094 kPa
